Data from ChEMBL document CHEMBL1201862, “PubChem BioAssay data set” (2004).
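In this assay, cells in 96-well plates receive the compound at five concentrations for 48 hours. Endpoints are linearly interpolated between the surrounding concentrations. Abbreviation: GI50, concentration required for 50% inhibition of growth.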 Activity calls are given as the source filed them. Cut-off read from the data, not from the text of the source: active = GI50 up to about 1.1 µM and inactive = higher.

How the values were obtained:
Test in all cases: NCI-60 cell line screen, 48 h
[1] = test system: OVCAR-8
[2] = test system: SN12C
[3] = test system: SF-539
[4] = test system: Malme-3M
[5] = test system: UACC-62
[6] = test system: LOX IMVI
[7] = test system: SR
[8] = test system: SK-MEL-28
[9] = test system: HCC 2998
[10] = test system: SW-620
[11] = test system: NCI-H23
[12] = test system: SK-OV-3
[13] = test system: UACC-257
[14] = test system: EKVX
[15] = test system: K562
[16] = test system: HOP-62
[17] = test system: A549
[18] = test system: OVCAR-4
[19] = test system: NCI/ADR-RES

Measured: GI50

O=c1[nH]ccc2c1ccn2C1CC(O)C(CO)O1 (stereo not given)
inactive: [1] > 100 µM | [2] > 100 µM | [3] > 100 µM | [4] > 100 µM | [5] > 100 µM | [6] > 100 µM | [7] > 100 µM | [8] > 100 µM | [9] > 100 µM | [10] > 100 µM | [11] > 100 µM | [12] > 100 µM | [13] > 100 µM | [14] > 100 µM | [15] > 100 µM | [16] > 100 µM | [17] > 100 µM | [18] > 100 µM

C[C@]12CC(c3ccccc3O1)C(C(=O)Nc1nc(C34CC5CC(CC(C5)C3)C4)cs1)C(=O)N2 (stereo not given in full)
inactive: [1] > 100 µM | [2] > 100 µM | [4] 34.7 µM | [5] > 100 µM | [6] > 100 µM | [7] > 100 µM | [8] > 100 µM | [9] > 100 µM | [10] > 100 µM | [11] > 100 µM | [12] > 100 µM | [13] > 100 µM | [14] > 100 µM | [19] > 100 µM | [15] > 100 µM | [16] > 100 µM | [17] > 100 µM | [18] > 100 µM

c1ccc2[nH]c(CNc3ccc(C4C[Se]N=N4)cc3)nc2c1 (stereo not given)
inactive: [1] 28.5 µM | [2] 86.9 µM | [3] > 100 µM | [4] 25.3 µM | [5] 24.7 µM | [6] 40.6 µM | [7] 9.86 µM | [8] 78.9 µM | [9] > 100 µM | [10] 95.7 µM | [11] 30.3 µM | [12] > 100 µM | [15] 27.9 µM | [16] > 100 µM | [17] > 100 µM | [18] 27.5 µM

COc1ccc(/C(=N/NC(N)=O)C(c2ccc(OC)cc2)C2C(=O)Oc3ccccc32)cc1 (stereo not given)
inactive: [1] > 100 µM | [2] > 100 µM | [3] > 100 µM | [4] > 100 µM | [5] > 100 µM | [6] > 100 µM | [7] > 100 µM | [8] > 100 µM | [9] > 100 µM | [10] > 100 µM | [11] > 100 µM | [12] > 100 µM | [13] > 100 µM | [15] > 100 µM | [16] > 100 µM | [17] > 100 µM | [18] > 100 µM

O=C1N2CCC[C@H]2CS1(=O)=O
inactive: [1] 13.6 µM | [2] 15.7 µM | [3] 29.5 µM | [4] 13.2 µM | [5] 16.4 µM | [6] 11.3 µM | [8] 18.4 µM | [9] 17.3 µM | [10] 8 µM | [11] 15.8 µM | [12] 36.6 µM | [13] 18.7 µM | [14] 22 µM | [19] 30 µM | [15] 5.62 µM | [16] 16.1 µM | [17] 22.8 µM | [18] 11.8 µM

CCCCOP1(=O)C=C(C)C(=C(Cl)Cl)C(C)=C1 (stereo not given)
inactive: [1] 17.9 µM | [2] 7.31 µM | [3] 23.6 µM | [4] 14.1 µM | [5] 7.01 µM | [6] 5.21 µM | [7] 3.2 µM | [8] 8.17 µM | [9] 22.3 µM | [10] 3.98 µM | [11] 12.4 µM | [12] 19.5 µM | [13] 5.43 µM | [14] 47.4 µM | [15] 3.85 µM | [16] 13.9 µM | [17] 6.58 µM | [18] 23.8 µM

COC(=O)CCC(=O)NC1c2cccc3cccc(c23)Cn2c(=O)n(C)c(=O)n21 (stereo not given)
inactive: [1] > 100 µM | [2] > 100 µM | [3] > 100 µM | [4] > 100 µM | [5] > 100 µM | [6] > 100 µM | [7] > 100 µM | [8] > 100 µM | [9] > 100 µM | [10] > 100 µM | [11] > 100 µM | [12] > 100 µM | [13] > 100 µM | [14] > 100 µM | [19] > 100 µM | [15] > 100 µM | [16] > 100 µM | [17] > 100 µM | [18] > 100 µM

O=C1NCCS(=O)(=O)N[C@@H](CC2=CC=CCC2)C(=O)N2CCCC12 (stereo not given in full)
inactive: [1] > 100 µM | [2] > 100 µM | [3] > 100 µM | [4] > 100 µM | [5] > 100 µM | [6] > 100 µM | [7] > 100 µM | [8] > 100 µM | [9] > 100 µM | [10] > 100 µM | [11] > 100 µM | [12] > 100 µM | [13] > 100 µM | [14] > 100 µM | [15] > 100 µM | [16] > 100 µM | [17] > 100 µM | [18] > 100 µM

CSc1ccsc1-c1sc(-c2cc(SC)c(-c3sc(-c4cc(SC)c(-c5sccc5SC)s4)cc3SC)s2)cc1SC
inactive: [1] > 100 µM | [2] 42.3 µM | [3] > 100 µM | [4] 29.4 µM | [5] 42.2 µM | [6] > 100 µM | [8] > 100 µM | [9] > 100 µM | [10] 21.5 µM | [11] 64.9 µM | [12] > 100 µM | [13] > 100 µM | [14] > 100 µM | [19] 45.7 µM | [15] 46.8 µM | [16] > 100 µM | [17] 90.8 µM | [18] > 100 µM

O=c1[nH]nc(Cc2ccccc2)n1/N=C/c1ccco1
inactive: [1] > 100 µM | [2] > 100 µM | [3] > 100 µM | [4] > 100 µM | [5] > 100 µM | [6] > 100 µM | [8] > 100 µM | [9] > 100 µM | [10] > 100 µM | [11] > 100 µM | [12] > 100 µM | [13] > 100 µM | [14] > 100 µM | [19] > 100 µM | [15] > 100 µM | [16] > 100 µM | [17] > 100 µM | [18] > 100 µM

CC1(C)CCC[C@@]2(C)C1CC[C@H]1CC(O)C3(C)CCC12C3 (stereo not given in full)
inactive: [1] 18.5 µM | [2] 16.9 µM | [3] 18.9 µM | [4] 16.9 µM | [5] 15.8 µM | [6] 15.4 µM | [7] 21.3 µM | [8] 18.4 µM | [9] 19.8 µM | [10] 17.1 µM | [11] 18.7 µM | [12] 18.3 µM | [13] 18.2 µM | [15] 32.1 µM | [16] 19.1 µM | [17] 18.7 µM | [18] 18.1 µM
